Experimental data reported in patent publication US10941138B2, “Quinoline and isoquinoline derivatives for treating pain and pain related conditions” (ESTEVE PHARMACEUTICALS, S.A., priority 2016, dated 2021).
Like-named read-outs stand apart in the source and are kept apart here.

Columns and labels:
[1] = target: human norepinephrine transporter (NET) (Homo sapiens (Human), UniProt P23975); experiment: Binding assay to human norepinephrine transporter (NET) ([3H]-Nisoxetin); settings: Table 2, dual compounds, human NET enriched membranes, read-out: Ki (nM) NET Hum
human norepinephrine transporter (NET), sequence (P23975 whole entry): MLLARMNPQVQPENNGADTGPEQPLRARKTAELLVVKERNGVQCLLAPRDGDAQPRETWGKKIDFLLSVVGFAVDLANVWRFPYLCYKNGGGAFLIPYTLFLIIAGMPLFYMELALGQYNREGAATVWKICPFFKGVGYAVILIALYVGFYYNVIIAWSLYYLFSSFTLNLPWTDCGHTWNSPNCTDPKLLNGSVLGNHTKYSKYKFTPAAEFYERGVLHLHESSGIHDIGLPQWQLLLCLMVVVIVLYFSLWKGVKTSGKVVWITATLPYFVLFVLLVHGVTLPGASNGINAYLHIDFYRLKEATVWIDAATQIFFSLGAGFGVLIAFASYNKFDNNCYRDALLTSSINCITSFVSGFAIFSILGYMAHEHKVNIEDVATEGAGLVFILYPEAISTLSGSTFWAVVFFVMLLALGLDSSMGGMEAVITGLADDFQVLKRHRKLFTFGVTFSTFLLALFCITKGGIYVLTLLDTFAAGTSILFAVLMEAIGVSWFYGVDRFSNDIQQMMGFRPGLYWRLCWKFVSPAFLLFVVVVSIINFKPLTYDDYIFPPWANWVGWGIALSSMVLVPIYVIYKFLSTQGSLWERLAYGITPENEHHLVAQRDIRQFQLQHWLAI
Description: Binding Assay to Human Norepinephrine Transporter (NET).
Human norepinephrine transporter (NET) enriched membranes (5 μg) were incubated with 5 nM of radiolabeled [3H]-Nisoxetin in assay buffer containing 50 mM Tris-HCl, 120 mM NaCl, 5 mM KCl, pH 7.4.
(§1) NSB (non specific binding) was measured by adding desipramine 10 μM. The binding of the test compound was measured at five different concentrations. After 60 min incubation at 4° C., binding reaction was terminated by filtering through Multiscreen GF/C (Millipore) presoaked in 0.5% polyethyleneimine in Vacuum Manifold Station, followed by 3 washes with ice-cold filtration buffer containing 50 mM Tris-HCl, 0.9% NaCl, pH 7.4.
Filter plates were dried at 60° C. for 1 h and 30 μl of scintillation cocktail were added to each well before radioactivity reading.
(§2) Readings were performed in a Trilux 1450 Microbeta radioactive counter (Perkin Elmer).

[2] = target: human α2δ-1 subunit of Cav2.2 calcium channel (Homo sapiens (Human), UniProt P54289); experiment: Binding assay to human α2δ-1 subunit of Cav2.2 calcium channel ([3H]-Gabapentin); settings: read-out: Ki (nM) alpha2delta Hum
human α2δ-1 subunit of Cav2.2 calcium channel, sequence (P54289 25-1103): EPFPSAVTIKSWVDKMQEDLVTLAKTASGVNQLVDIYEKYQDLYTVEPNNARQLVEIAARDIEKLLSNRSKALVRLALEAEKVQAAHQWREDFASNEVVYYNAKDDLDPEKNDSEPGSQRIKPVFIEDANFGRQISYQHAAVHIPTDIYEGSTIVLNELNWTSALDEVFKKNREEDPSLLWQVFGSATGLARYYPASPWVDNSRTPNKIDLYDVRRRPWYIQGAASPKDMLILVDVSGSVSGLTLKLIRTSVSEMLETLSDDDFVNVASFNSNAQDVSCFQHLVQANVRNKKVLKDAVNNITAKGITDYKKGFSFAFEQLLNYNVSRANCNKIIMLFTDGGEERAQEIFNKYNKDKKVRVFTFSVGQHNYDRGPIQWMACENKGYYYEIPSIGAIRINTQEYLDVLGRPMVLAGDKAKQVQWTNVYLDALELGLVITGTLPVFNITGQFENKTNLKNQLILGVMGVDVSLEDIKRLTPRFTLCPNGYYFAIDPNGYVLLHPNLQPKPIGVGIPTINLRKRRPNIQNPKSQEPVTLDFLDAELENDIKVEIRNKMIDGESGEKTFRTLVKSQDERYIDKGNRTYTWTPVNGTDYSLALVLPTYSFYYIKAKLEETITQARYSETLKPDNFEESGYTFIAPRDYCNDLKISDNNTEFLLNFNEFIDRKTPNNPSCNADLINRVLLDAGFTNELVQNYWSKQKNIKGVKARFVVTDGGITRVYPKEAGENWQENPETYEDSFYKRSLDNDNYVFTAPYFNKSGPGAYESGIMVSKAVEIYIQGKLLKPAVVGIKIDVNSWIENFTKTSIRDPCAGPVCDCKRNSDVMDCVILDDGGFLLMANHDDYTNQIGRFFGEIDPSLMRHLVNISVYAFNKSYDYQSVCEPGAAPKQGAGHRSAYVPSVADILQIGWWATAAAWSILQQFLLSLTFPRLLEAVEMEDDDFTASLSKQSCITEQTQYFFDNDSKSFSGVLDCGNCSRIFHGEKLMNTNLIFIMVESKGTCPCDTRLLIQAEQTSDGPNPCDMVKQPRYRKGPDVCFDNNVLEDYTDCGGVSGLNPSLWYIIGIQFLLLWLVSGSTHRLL
Description: Binding Assay to Human α2δ-1 Subunit of Cav2.2 Calcium Channel.
Human α2δ-1 enriched membranes (2.5 μg) were incubated with 15 nM of radiolabeled [3H]-Gabapentin in assay buffer containing Hepes-KOH 10 mM, pH 7.4.
as §1, with “adding” for “adding desipramine”, “μM pregabalin.” for “μM.”, “27°” for “4°”, “Tris-HCl,” for “Tris-HCl, 0.9% NaCl,”, “7.4. Filter plates were dried at 60° C. for 1 h and 30 μl of scintillation cocktail were added to each well before radioactivity reading.” for “7.4.”
as §2

[3] = Table 1, human α2δ-1 enriched membranes
[4] = Table 2, dual compounds, human α2δ-1 enriched membranes

Ki [1] [nM] | Ki [2, 3] [nM] | Ki [2, 4] [nM] | SMILES
100 to 500 | 500 to 3000 | 500 to 3000 | CNCCC(Oc1cccc2cnccc12)c1nccs1 (stereo not drawn) [Example 71, 3-(isoquinolin-5-yloxy)-N-methyl-3-(thiazol-2-yl)propan-1-amine]
500 to 1000 | 100 to 500 | 100 to 500 | CNCCC(Oc1cccc2ncccc12)c1nccs1 (stereo not drawn) [Example 72, N-methyl-3-(quinolin-5-yloxy)-3-(thiazol-2-yl)propan-1-amine]
100 to 500 | ≥ 3000 | ≥ 3000 | CNCCC(Oc1ccc2ccncc2c1)c1cccs1 (stereo not drawn) [Example 74, 3-(isoquinolin-7-yloxy)-N-methyl-3-(thiophen-2-yl)propan-1-amine]
100 to 500 | 500 to 3000 | 500 to 3000 | CNCC[C@H](Oc1cccc2ncccc12)c1ccc(Cl)s1 [Example 78, (S)-3-(5-Chlorothiophen-2-yl)-N-methyl-3-(quinolin-5-yloxy)propan-1-amine]
500 to 1000 | < 100 | < 100 | CNCC[C@@H](Oc1cccc2ncccc12)c1ccc(Cl)s1 [Example 79, (R)-3-(5-chlorothiophen-2-yl)-N-methyl-3-(quinolin-5-yloxy)propan-1-amine]
100 to 500 | 100 to 500 | 100 to 500 | CNCC[C@@H](Oc1cccc2ccncc12)c1ccc(F)s1 [Example 81, (R)-3-(5-fluorothiophen-2-yl)-3-(isoquinolin-8-yloxy)-N-methylpropan-1-amine]
< 100 | ≥ 3000 | ≥ 3000 | CNCC[C@H](Oc1cccc2cnccc12)c1sccc1F [Example 82, (S)-3-(3-Fluorothiophen-2-yl)-3-(isoquinolin-5-yloxy)-N-methylpropan-1-amine]
100 to 500 | 100 to 500 | 100 to 500 | CNCC[C@@H](Oc1cccc2cnccc12)c1sccc1F [Example 83, (R)-3-(3-fluorothiophen-2-yl)-3-(isoquinolin-5-yloxy)-N-methylpropan-1-amine]
100 to 500 | 500 to 3000 | 500 to 3000 | CNCC[C@H](Oc1cccc2ncccc12)c1sccc1F [Example 84, (S)-3-(3-Fluorothiophen-2-yl)-N-methyl-3-(quinolin-5-yloxy)propan-1-amine]
100 to 500 | 500 to 3000 | 500 to 3000 | CNCC[C@@H](Oc1cccc2ncccc12)c1sccc1F [Example 85, (R)-3-(3-fluorothiophen-2-yl)-N-methyl-3-(quinolin-5-yloxy)propan-1-amine]
100 to 500 | ≥ 3000 | ≥ 3000 | CNCC[C@H](Oc1cccc2ccncc12)c1sccc1F [Example 86, (S)-3-(3-Fluorothiophen-2-yl)-3-(isoquinolin-8-yloxy)-N-methylpropan-1-amine]
100 to 500 | 100 to 500 | 100 to 500 | CNCC[C@@H](Oc1cccc2ccncc12)c1sccc1F [Example 87, (R)-3-(3-fluorothiophen-2-yl)-3-(isoquinolin-8-yloxy)-N-methylpropan-1-amine]
100 to 500 | ≥ 3000 | ≥ 3000 | CNCC[C@@H](Oc1cnc2ccccc2c1)c1cccs1 [Example 94, (R)-N-methyl-3-(quinolin-3-yloxy)-3-(thiophen-2-yl)propan-1-amine]
